Literature values as cited in publication PMC12736226, “Acid Versus Amide—Facts and Fallacies: A Case Study in Glycomimetic Ligand Design” (Molecules, 2025).

Target: T1, E-selectin (Homo sapiens, UniProt P16581)
T1 construct: gene SELE; soluble extracellular lectin-domain fragment with Ca2+
T1 sequence (P16581 22-301): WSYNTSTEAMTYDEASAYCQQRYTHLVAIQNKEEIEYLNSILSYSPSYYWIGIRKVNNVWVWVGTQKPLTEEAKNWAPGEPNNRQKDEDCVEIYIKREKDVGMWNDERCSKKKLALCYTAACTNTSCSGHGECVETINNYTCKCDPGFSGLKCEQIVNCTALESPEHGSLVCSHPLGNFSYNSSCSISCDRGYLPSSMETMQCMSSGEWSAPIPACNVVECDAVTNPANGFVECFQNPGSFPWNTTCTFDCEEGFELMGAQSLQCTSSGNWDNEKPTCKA
Assay: microscale thermophoresis (MST)
Type: binding
Conditions: affinity data also reported in Ref. 25; read-out: Affinity KD MST [μM] (95% CI)
From the text: microscale thermophoresis (MST) on E-selectin

Kd [µM]	SMILES
112	CNC(=O)[C@H](CC1CCCCC1)O[C@H]1[C@@H](O)[C@@H](CO)O[C@@H](O[C@@H]2CCCC[C@H]2O[C@@H]2O[C@@H](C)[C@@H](O)[C@@H](O)[C@@H]2O)[C@@H]1O [3b]
109	CCNC(=O)[C@H](CC1CCCCC1)O[C@H]1[C@@H](O)[C@@H](CO)O[C@@H](O[C@@H]2CCCC[C@H]2O[C@@H]2O[C@@H](C)[C@@H](O)[C@@H](O)[C@@H]2O)[C@@H]1O [3c]
21.4	C[C@@H]1O[C@@H](O[C@@H]2CCCC[C@H]2O[C@@H]2O[C@H](CO)[C@H](O)[C@H](O[C@@H](CC3CCCCC3)C(=O)N3CCCC3)[C@H]2O)[C@@H](O)[C@H](O)[C@@H]1O [3e]
38.2	C[C@@H]1O[C@@H](O[C@@H]2CCCC[C@H]2O[C@@H]2O[C@H](CO)[C@H](O)[C@H](O[C@@H](CC3CCCCC3)C(=O)N3CC(C)(C)C3)[C@H]2O)[C@@H](O)[C@H](O)[C@@H]1O [3i]

The next lines start with the molecule.

SMILES	Kd [µM]
C[C@@H]1O[C@@H](O[C@@H]2CCCC[C@H]2O[C@@H]2O[C@H](CO)[C@H](O)[C@H](O[C@@H](CC3CCCCC3)C(N)=O)[C@H]2O)[C@@H](O)[C@H](O)[C@@H]1O [3a]	166
C[C@@H]1O[C@@H](O[C@@H]2CCCC[C@H]2O[C@@H]2O[C@H](CO)[C@H](O)[C@H](O[C@@H](CC3CCCCC3)C(=O)N(C)C)[C@H]2O)[C@@H](O)[C@H](O)[C@@H]1O [3d]	34.6
C[C@@H]1O[C@@H](O[C@@H]2CCCC[C@H]2O[C@@H]2O[C@H](CO)[C@H](O)[C@H](O[C@@H](CC3CCCCC3)C(=O)N3CCC3)[C@H]2O)[C@@H](O)[C@H](O)[C@@H]1O [3f]	17
C[C@@H]1O[C@@H](O[C@@H]2CCCC[C@H]2O[C@@H]2O[C@H](CO)[C@H](O)[C@H](O[C@@H](CC3CCCCC3)C(=O)N3CC(c4ccccc4)C3)[C@H]2O)[C@@H](O)[C@H](O)[C@@H]1O [3h]	16.2
CC(=O)N[C@H]1[C@H]([C@H](O)[C@H](O)CO)O[C@@](O[C@H]2[C@@H](O)[C@@H](CO)O[C@@H](O[C@H]3[C@H](O[C@@H]4O[C@@H](C)[C@@H](O)[C@@H](O)[C@@H]4O)[C@@H](NC(C)=O)C(O)O[C@@H]3CO)[C@@H]2O)(C(=O)O)C[C@@H]1O (stereo partly drawn) [compound 1, Sialyl Lewis^x]	873
